# Test results reported in US8710043B2, “TRPM8 antagonists and their use in treatments” (Amgen Inc., priority 2011, dated 2014).
# Structures can show the parent of a compound that is named as a salt.
# Target: T1, human TRPM8 (Homo sapiens, UniProt Q7Z2W7)
# T1 construct: expressed in transfected cells; host or cells: Chinese hamster ovary (CHO) cells, T-REx tetracycline-inducible system, co-transfected with aequorin
# Assay: Luminescence readout assay for measuring intracellular calcium, icilin activation
# Assay type: cell-based
# Conditions: CHO cells expressing human TRPM8, aequorin luminescence, 1 μM icilin activation; read-out: hTRPM8 IC50
# Summary of the method: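 The read-out was luminescence reporting intracellular calcium, recorded by a CCD-based luminometer. Compounds were preincubated for 2.5 min before agonist challenge with 1 μM icilin. Human TRPM8 was expressed in a stable T-REx CHO line, induced with 0.5 μg/mL tetracycline the day before.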
# T1 sequence (Q7Z2W7 whole entry): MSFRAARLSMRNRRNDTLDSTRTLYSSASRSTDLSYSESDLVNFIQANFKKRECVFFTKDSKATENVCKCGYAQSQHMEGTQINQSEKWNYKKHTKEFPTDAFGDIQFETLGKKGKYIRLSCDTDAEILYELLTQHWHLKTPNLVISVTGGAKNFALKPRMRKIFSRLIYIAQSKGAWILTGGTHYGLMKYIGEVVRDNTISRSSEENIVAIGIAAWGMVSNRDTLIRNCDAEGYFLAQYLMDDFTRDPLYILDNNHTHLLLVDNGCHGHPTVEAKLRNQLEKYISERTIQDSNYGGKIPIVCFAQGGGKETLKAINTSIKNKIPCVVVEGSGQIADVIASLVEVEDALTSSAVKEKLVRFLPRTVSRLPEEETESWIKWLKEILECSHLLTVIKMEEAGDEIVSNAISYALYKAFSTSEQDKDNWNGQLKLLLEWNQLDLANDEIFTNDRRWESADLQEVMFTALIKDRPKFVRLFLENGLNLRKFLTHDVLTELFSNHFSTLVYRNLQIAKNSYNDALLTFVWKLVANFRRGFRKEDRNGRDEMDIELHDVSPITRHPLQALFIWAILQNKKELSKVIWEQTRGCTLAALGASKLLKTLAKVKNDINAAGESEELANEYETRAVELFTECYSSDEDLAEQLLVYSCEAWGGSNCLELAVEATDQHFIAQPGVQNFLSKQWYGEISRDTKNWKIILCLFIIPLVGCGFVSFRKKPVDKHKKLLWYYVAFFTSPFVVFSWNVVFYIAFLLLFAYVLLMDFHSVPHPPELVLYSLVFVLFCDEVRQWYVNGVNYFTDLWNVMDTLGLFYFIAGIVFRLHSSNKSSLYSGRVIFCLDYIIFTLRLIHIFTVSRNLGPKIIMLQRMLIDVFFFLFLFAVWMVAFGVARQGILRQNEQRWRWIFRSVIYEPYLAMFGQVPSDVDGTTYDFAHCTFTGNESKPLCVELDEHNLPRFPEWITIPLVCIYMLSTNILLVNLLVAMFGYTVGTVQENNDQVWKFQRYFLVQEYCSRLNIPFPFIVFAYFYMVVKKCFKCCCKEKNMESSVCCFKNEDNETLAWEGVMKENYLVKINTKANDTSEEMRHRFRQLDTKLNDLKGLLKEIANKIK
row,SMILES,IC50
1,"Cn1cc(C(=O)N[C@@H](c2ccc(F)c(F)c2)c2ncccc2F)ccc1=O [Example 332, (S)-N-((3,4-difluorophenyl)(3-fluoropyridin-2-yl)methyl)-1-methyl-6-oxo-1,6-dihydropyridine-3-carboxamide]",268 nM
2,"O=C(N[C@@H](c1ccc(C(F)(F)F)cc1)c1ncccc1C(F)(F)F)c1ccn2ccnc2c1 [Example 87, (S)-N-((4-(trifluoromethyl)phenyl)(3-(trifluoromethyl)pyridin-2-yl)methyl)imidazo[1,2-a]pyridine-7-carboxamide]",8.9 nM
3,"O=C(N[C@@H](c1ccc(C(F)(F)F)cc1)c1ncccc1C(F)(F)F)c1cnc(O)nc1 [Example 266, (S)-2-Hydroxy-N-((4-(trifluoromethyl)phenyl)(3-(trifluoro-methyl)pyridin-2-yl)methyl)pyrimidine-5-carboxamide]",223 nM
4,"CCn1cc(C(=O)N[C@@H](c2ccc(OC(F)(F)F)cc2)c2ncccc2F)ccc1=O [Example 255, (S)-1-ethyl-N-((3-fluoropyridin-2-yl)(4-(trifluoromethoxy)phenyl)methyl)-6-oxo-1,6-dihydropyridine-3-carboxamide]",17.6 nM
5,"COc1ccc([C@H](NC(=O)c2ccc3cccnc3c2)c2ncccc2C(F)(F)F)cc1F [Example 25, (S)-N-((3-fluoro-4-methoxyphenyl)(3-(trifluoromethyl)pyridin-2-yl)methyl)quinoline-7-carboxamide]",36.8 nM
6,"Cn1cc(C(=O)N[C@@H](c2ccc(OC(F)(F)F)c(F)c2)c2ccccc2F)ccc1=O [Example 296, (S)-N-((3-fluoro-4-(trifluoromethoxy)phenyl)(2-fluorophenyl)methyl)-1-methyl-6-oxo-1,6-dihydropyridine-3-carboxamide]",23.1 nM
7,"Cn1ccnc1C(=O)N[C@@H](c1ccc(C(F)(F)F)cc1)c1ncccc1C(F)(F)F [Example 146, (S)-1-methyl-N-((4-(trifluoromethyl)phenyl)(3-(trifluoromethyl)pyridin-2-yl)methyl)-1H-imidazole-2-carboxamide]",180 nM
8,"O=C(N[C@@H](c1ccc(C(F)(F)F)cc1)c1ncccc1C(F)(F)F)c1ccc2c(c1)NCCC2 [Example 274, (S)—N-((4-(Trifluoromethyl)phenyl)(3-(trifluoromethyl)pyridin-2-yl)methyl)-1,2,3,4-tetrahydroquinoline-7-carboxamide]",198 nM
9,"N#Cc1ccc(C(=O)N[C@@H](c2ccc(C(F)(F)F)cc2)c2ncccc2C(F)(F)F)nc1 [Example 275, (S)-5-Cyano-N-((4-(trifluoromethyl)phenyl)(3-(trifluoro-methyl)pyridin-2-yl)methyl)picolinamide]",68.6 nM
10,"O=C(N[C@@H](c1ccc(C(F)(F)F)cc1)c1ncccc1C(F)(F)F)c1cc[nH]c(=O)c1 [Example 44, (S)-2-hydroxy-N-((4-(trifluoromethyl)phenyl)(3-(trifluoromethyl)pyridin-2-yl)methyl)isonicotinamide]",229 nM
11,"O=C(N[C@@H](c1ccc(OC(F)(F)F)cc1)c1ncccc1F)c1ccc2nnnn2c1 [Example 309, (S)-N-((3-fluoropyridin-2-yl)(4-(trifluoromethoxy)phenyl)methyl)tetrazolo[1,5-a]pyridine-6-carboxamide]",30.8 nM
12,"O=C1CCc2cc(C(=O)N[C@@H](c3ccc(C(F)(F)F)cc3)c3ncccc3F)ccc2N1 [Example 318, (S)-N-((3-fluoropyridin-2-yl)(4-(trifluoromethyl)phenyl)methyl)-2-oxo-1,2,3,4-tetrahydroquinoline-6-carboxamide]",29.7 nM
13,"O=C(N[C@@H](c1cc(F)cc(F)c1)c1ncccc1F)c1ccc(=O)[nH]c1 [Example 329, (S)-N-((3,5-difluorophenyl)(3-fluoropyridin-2-yl)methyl)-6-oxo-1,6-dihydropyridine-3-carboxamide]",841 nM
14,"Cc1cccnc1[C@@H](NC(=O)c1ccc(=O)[nH]c1)c1ccc(OC(F)(F)F)cc1 [Example 359, (S)-N-((3-methylpyridin-2-yl)(4-(trifluoromethoxy)phenyl)methyl)-6-oxo-1,6-dihydropyridine-3-carboxamide]",13.6 nM
15,"O=C(N[C@@H](c1ccc(C(F)(F)F)c(F)c1)c1ncccc1C(F)(F)F)c1ccc2nccnc2c1 [Example 108, (S)-N-((3-fluoro-4-(trifluoromethyl)phenyl)(3-(trifluoromethyl)pyridin-2-yl)methyl)quinoxaline-6-carboxamide]",24.1 nM
16,"O=C(N[C@@H](c1ccc(OC(F)(F)F)cc1)c1ncccc1F)c1cc2n(n1)CCCO2 [Example 356, (S)-N-((3-fluoropyridin-2-yl)(4-(trifluoromethoxy)phenyl)methyl)-6,7-dihydro-5H-pyrazolo[5,1-b][1,3]oxazine-2-carboxamide]",78.4 nM
17,"Cn1cc(C(=O)N[C@@H](c2ccc(Cl)c(Cl)c2)c2ncccc2F)ccc1=O [Example 251, (S)-N-((3,4-dichlorophenyl)(3-fluoropyridin-2-yl)methyl)-1-methyl-6-oxo-1,6-dihydropyridine-3-carboxamide 2,2,2-trifluoroacetate]",19.3 nM
18,"CC#Cc1cccnc1[C@@H](NC(=O)c1ccc(OC)cc1)c1ccc(C(F)(F)F)cc1 [Example 95, (S)-4-methoxy-N-((3-(prop-1-yn-1-yl)pyridin-2-yl)(4-(trifluoromethyl)phenyl)methyl)benzamide 2,2,2-trifluoroacetate]",57.2 nM
19,"O=C(N[C@@H](c1ccc(C(F)(F)F)cc1)c1ncccc1C(F)(F)F)C1CCOCC1 [Example 152, (S)-N-((4-(trifluoromethyl)phenyl)(3-(trifluoromethyl)pyridin-2-yl)methyl)tetrahydro-2H-pyran-4-carboxamide]",459 nM
20,"O=C(NC(c1ccc(Cl)c(Cl)c1)c1ccccn1)c1ccc2cnccc2c1 (stereo not shown) [Example 247, N-((3,4-dichlorophenyl)(pyridin-2-yl)methyl)isoquinoline-6-carboxamide bis-hydrochloride]",42.7 nM
21,"O=C1Cc2cc(C(=O)N[C@@H](c3ccc(OC(F)(F)F)c(F)c3)c3ncccc3F)ccc2N1 [Example 346, (S)-N-((3-fluoro-4-(trifluoromethoxy)phenyl)(3-fluoropyridin-2-yl)methyl)-2-oxoindoline-5-carboxamide]",11.1 nM
22,"O=C(N[C@@H](c1ccc(C(F)(F)F)cc1)c1c(F)cccc1F)c1ccc(=O)[nH]c1 [Example 258, (S)-N-((2,6-difluorophenyl)(4-(trifluoromethyl)phenyl)methyl)-6-oxo-1,6-dihydropyridine-3-carboxamide]",40.7 nM
23,"O=C(N[C@@H](c1ccc(C(F)(F)F)cc1)c1ncccc1F)c1ccc2nnnn2c1 [Example 307, (S)-N-((3-fluoropyridin-2-yl)(4-(trifluoromethyl)phenyl)methyl)tetrazolo[1,5-a]pyridine-6-carboxamide]",45.4 nM
24,"Cc1cc([C@H](NC(=O)c2ccc(=O)[nH]c2)c2ncccc2F)cc(C(F)(F)F)c1 [Example 333, (S)-N-((3-fluoropyridin-2-yl)(3-methyl-5-(trifluoromethyl)phenyl)methyl)-6-oxo-l,6-dihydropyridine-3-carboxamide]",658 nM

# Same assay, conditions: hTRPM8 IC50, CHO cells expressing human TRPM8, aequorin luminescence, 1 μM icilin activation
row,SMILES,IC50
1,"Cn1nc(C(=O)N[C@@H](c2ccc(C(F)(F)F)cc2)c2ncccc2C(F)(F)F)c2ccccc21 [Example 215, (S)-1-methyl-N-((4-(trifluoromethyl)phenyl)(3-(trifluoromethyl)pyridin-2-yl)methyl)-1H-indazole-3-carboxamide]",84.5 nM
